Patent publication US4981792A, “Immunosuppressant compound” (Merck & Co., Inc., priority 1988, dated 1991)
“And” between values parts separate entries of the source, which are not always exact repeats. Equal values may be shown once. “Also recorded” adds a separate entry of the source. Read-outs that look alike come from different tables or passages of the source.

How the values were obtained:
mouse T lymphocytes = test: T-cell proliferation assay (ionomycin plus PMA induced, tritiated thymidine uptake); assay type: cell-based, mouse (C57Bl/6)
Description: The principle of this assay is to measure the proliferation of mouse T lymphocytes stimulated with the combination of ionomycin plus PMA. A positive sample in this assay will inhibit T-cell proliferation, as indicated by reduced tritiated thymidine uptake.
Purified demethomycin, as prepared by HPLC above, was dissolved in absolute ethanol at 1 mg/ml.
Spleens from C57Bl/6 mice were taken under sterile conditions and gently dissociated in ice-cold RPMI 1640 culture medium (GIBCO, Grand Island, N.Y.) supplemented with 10% heat-inactivated fetal calf serum (GIBCO). Cells were pelleted by centrifugation at 1500 rpm for 8 minutes. Contaminating red cells were removed by treating the pellet with ammonium chloride lysing buffer (GIBCO) for 2 minutes at 4° C. Cold medium was added and cells were again centrifuged at 1500 rpm for 8 minutes. T lymphocytes were then isolated by separation of the cell suspension on nylon wool columns as follows: Nylon wool columns were prepared by packing approximately 4 grams of washed and dried nylon wool into 20 ml plastic syringes. The columns were sterilized by autoclaving at 250° F. for 30 minutes. Nylon wool columns were wetted with warm (37° C.) culture medium and rinsed with the same medium. Washed spleen cells resuspended in warm medium were slowly applied to the nylon wool. The columns were then incubated in an upright position at 37° C. for 1 hour. Non-adherent T lymphocytes were eluted from the columns with warm culture medium and the cell suspensions were spun as above.
Purified T lymphocytes were resuspended at 2.5×10^5 cells/ml in complete culture medium composed of RPMI 1640 medium with 10% neat-inactivated fetal calf serum, […], 1 mM sodium pyruvate, 2×10^-5 M 2-mercaptoethanol and 50 μg/ml gentamycin. Ionomycin was added at 250 ng/ml and PMA at 10 ng/ml. The cell suspension was immediately distributed into 96 well flat-bottom microculture plates (Costar) at 200 μl/well. The control, being the medium without test drug, and various below-indicated dilutions of the sample (above-describedpurified demethomycin; to be tested were then added in triplicate wells at 20 μl/well. L-679,934 was used as a standard. The culture plates were then incubated at 37° C. in a humidified atmosphere of 5% CO2 -95% air for 44 hours. The proliferation of T lymphocytes was assessed by measurement of tritiated thymidine incorporation. After 44 hours of culturing, the cells were pulse-labelled with 2 μCi/well of tritiated thymidine (NEN, Cambridge, MA). After another 4 hours of incubation, cultures were harvested on glass fiber filters using a multiple sample narvester. Radioactivity of filter discs corresponding to individual wells was measured by standard liquid scintillation counting methods (Betacounter). Mean counts per minute of replicate wells were calculated and the results expressed as percent inhibition of tritiated thymidine uptake (proliferation) as follows: [formula]
1. Mouse T cell cultures were pulsed with ^3 Hthymidine for 4 hours
prior to harvesting at 48 hours.

[1] = reputed; immunosuppressant, vs cyclosporin; cited from earlier work

## C=CC[C@@H]1/C=C(\C)C[C@H](C)C[C@H](OC)[C@H]2O[C@@](O)(C(=O)C(=O)N3CCCC[C@H]3C(=O)O[C@H](/C(C)=C/[C@@H]3CC[C@@H](O)[C@H](OC)C3)[C@H](C)[C@@H](O)CC1=O)[C@H](C)C[C@@H]2OC [L-679,934, reference compound]
Mouse T lymphocytes; Mus musculus, T-lymphocyte, read-out: % inhibition of T-cell proliferation (standard)
  inhibition at 0.01 µg/mL: 99%
[1]
  effectiveness relative to cyclosporin: 100 times

## C=CC[C@@H]1/C=C(\C)C[C@H](C)C[C@H](OC)[C@H]2O[C@@](O)(C(=O)C(=O)N3CCCC[C@H]3C(=O)O[C@H](/C(C)=C/[C@@H]3CC[C@@H](O)[C@H](O)C3)[C@H](C)[C@@H](O)CC1=O)[C@H](C)C[C@@H]2OC [demethomycin, 31-desmethoxy-31-hydroxy-L-679,934]
Mouse T lymphocytes; 50 μ/ml of IL2 (recombinant IL2) added at initiation of culture
  Reversal of inhibition of T-cell proliferation by recombinant IL2: reversed
Mouse T lymphocytes; Mus musculus, T-lymphocyte, 0.29 ng/ml, harvest at 48 hours
  inhibition at 0.00029 µg/mL: 0%
Mouse T lymphocytes; Mus musculus, T-lymphocyte, 0.44 ng/ml, harvest at 48 hours
  inhibition at 0.00044 µg/mL: 0%
Mouse T lymphocytes; Mus musculus, T-lymphocyte, 0.66 ng/ml, harvest at 48 hours
  inhibition at 0.00066 µg/mL: 36.8%
Mouse T lymphocytes; Mus musculus, T-lymphocyte, 0.99 ng/ml, harvest at 48 hours
  inhibition at 0.00099 µg/mL: 67.1%
Mouse T lymphocytes; Mus musculus, T-lymphocyte, 1.5 ng/ml, harvest at 48 hours
  inhibition at 0.0015 µg/mL: 80.5%
Mouse T lymphocytes; Mus musculus, T-lymphocyte, 2.2 ng/ml, harvest at 48 hours
  inhibition at 0.0022 µg/mL: 92.9%
Mouse T lymphocytes; Mus musculus, T-lymphocyte, 3.3 ng/ml, harvest at 48 hours
  inhibition at 0.0033 µg/mL: 97.2%
Mouse T lymphocytes; Mus musculus, T-lymphocyte, 5 ng/ml, harvest at 48 hours
  inhibition at 0.005 µg/mL: 98.1%
Mouse T lymphocytes; Mus musculus, T-lymphocyte, T-cell proliferation, harvest at 48 hours, read-out: IC50
  IC50: 0.00086 µg/mL and 1.09 nM
Mouse T lymphocytes; Mus musculus, T-lymphocyte, generally in the range, read-out: IC50, general range
  IC50: 600 to 1200 pM
Mouse T lymphocytes; T-cell proliferation assay
  immunosuppressive activity / inhibition of T-cell activation (qualitative): positive inhibition of T-cell activation; also recorded: positive immunosuppressive activity
